Data on one compound can be found in patent US10695450B2, “Synthesis of a radioactive agent composition” (LABORATOIRES CYCLOPHARMA, priority 2016, dated 2020).

The nature of the data set: Radiochemical purity of [^18F]FES stock solution during storage (radiolysis stability). Type of data set: physicochemical. The settings on record: for Radio-chemical purity after 10 h storage: sodium ascorbate in purification and formulation (0.45% m/v). As to the method: Radiochemical purity is the ratio of the radioactivity of the radionuclide agent under chemical form on the total radioactivity of this same radionuclide. Radiochemical purity of the [^18F]FES stock solution is measured. […]

With `C[C@]12CC[C@@H]3c4ccc(O)cc4CC[C@H]3C1C[C@@H]([18F])[C@@H]2O` (stereo partly drawn) [[^18F]FES, 16α-[^18F]fluoro-17β-estradiol], the Radio-chemical purity (Example 2: sodium ascorbate during purification only, none in final solution, 250 GBq 18-Fluorine, time of storage 0 hours (end of synthesis)) is on record as 99.3%; the Radio-chemical purity (Example 2: sodium ascorbate during purification only, none in final solution, 250 GBq 18-Fluorine, time of storage 4 hours) turned out to be 95%; the Radio-chemical purity (Example 2: sodium ascorbate during purification only, none in final solution, 250 GBq 18-Fluorine, time of storage 8 hours) is 93%; the Radio-chemical purity (Example 2: sodium ascorbate during purification only, none in final solution, 250 GBq 18-Fluorine, time of storage 10 hours) was 92%; the Radio-chemical purity (Example 4: synthesis in the presence of sodium ascorbate, 164 GBq 18-Fluorine, time of storage 0 hours (end of synthesis)) came to 98.0%; the Radio-chemical purity (Example 4: synthesis in the presence of sodium ascorbate, 164 GBq 18-Fluorine, time of storage 5 hours) is given as 96.8%. Under “Example 4: synthesis in the presence of sodium ascorbate, 164 GBq 18-Fluorine, time of storage 10 hours”, the Radio-chemical purity is 96.7%. Also, the “Radio-chemical purity after 10 h storage” value runs as follows: (Example 3, batch number 1, 79 GBq 18-Fluorine) 98.0%; (Example 3, batch number 2, 99 GBq 18-Fluorine) 99.0%; (Example 3, batch number 3, 164 GBq 18-Fluorine) 96.7%; (Example 3, batch number 4, 195 GBq 18-Fluorine) 97.1%. The “Decrease of radiochemical purity after 10 hours of storage” value by setting is: (synthesized in the presence of sodium ascorbate (Example 4, Table 4)) 1.3%; (synthesized without antioxidant (Example 2, Table 2)) 7.3%.
